Experimental findings from patent US8101572B2, “Methods for promoting wound healing and/or reducing scar formation” (Arizona Board of Regents, A Corporate Body Organized Under …, priority 2003, dated 2012) are described below.

For assay [1], the system named is Swiss albino 3T3 cells. As to the kind of experiment: focal adhesion protein localization (immunostaining for α-actinin, vinculin, paxillin). Particulars: 30 min, 10 μM forskolin, 25 μM pHSP20, 25 μM FITC-aHSP20. Type of assay: cell-based. The procedure: (§1) Unless otherwise stated, all reagents were purchased from Sigma, St. Louis, Mo. Swiss Albino 3T3 fibroblasts (ATCC, Manassas, Va.) were cultured in DMEM supplemented with 10% BCS, 4 mM L-glutamine and 50 μg/ml penicillin-streptomycin and maintained at 37° C., 5% CO2. Cells were seeded and cultured overnight. Culture media was replaced with DMEM containing 0.5% BCS 1 hour prior to experimentation. Cells were incubated with the peptide analogues or reagent (LPA or forskolin) diluted in DMEM containing 0.5% BCS, 30 minutes at 37° C. Cells were then fixed in 4% paraformnaldehyde, permeabilized in 0.25% Triton X-100, and blocked with 1% BSA solution for 1 hour. To determine f-actin cytoskeletal distribution, treated cells were incubated with Alexa 568 phalloidin (Molecular Probes, Eugene, Oreg.) in 1% BSA, 30 minutes. To determine focal adhesion protein localization, treated cells were incubated with primary monoclonal antibodies for α-actinin (1:100, Upstate, Charlottesville, Va.), vinculin (1:100, Sigma) or paxillin (1:100, BD Bioscience-Transduction Labs, San Jose, Calif.) in 1% BSA solution for 2 hours, rinsed in PBS and incubated 60 min with Cy3-goat IgG secondary antibody (Jackson ImmunoResearch, West Grove, Pa.). Slides were mounted and analyzed by confocal microscopy (Leica TCS SP2, Bannockburn, Ill.). […]

Assay [2] has as its system Swiss albino 3T3 cells. As to the kind of experiment: f-actin cytoskeletal distribution (Alexa 568 phalloidin, confocal microscopy). As to conditions: 30 min, 10 μM LPA, 10 μM forskolin, 25 μM FITC-pHSP20, 25 μM FITC-aHSP20. Type of assay: cell-based. The procedure:
as §1, with “To determine focal adhesion protein localization, treated cells were incubated with primary monoclonal antibodies for α-actinin (1:100, Upstate, Charlottesville, Va.), vinculin (1:100, Sigma) or paxillin (1:100, BD Bioscience-Transduction Labs, San Jose, Calif.) in 1% BSA solution for 2 hours, rinsed in PBS and incubated 60 min with Cy3-goat IgG secondary antibody (Jackson ImmunoResearch, West Grove, Pa.).” left out
Swiss albino 3T3 cells were either untreated or treated with 10 μM LPA, 10 μM forskolin, 25 μM FITC-pHSP20, or 25 μM FITC-aHSP20 as described (4). Cells were fixed, stained for f-actin using Alexa 568 phalloidin, and visualized by projection images of confocal fluorescence microscopy. […]

Assay [3] has as its system 3T3 cells. Nature of the assay: focal adhesion assay using interference reflection microscopy. Format: cell-based. Particulars: cultured 3T3 cells; 100 nM Hep I, 10 μM and 25 μM peptide; FIG. 2. The procedure: Results from the focal adhesion assay using interference reflective microscopy on 3T3 cells treated as described (4). Each condition was tested in triplicate, and an average of 250 cells per coverslip was counted. A cell was scored positive if it contained at least five focal adhesions. Hep I (peptide from thrombospondin 1) was used as a positive control. *P<0.05 compared to untreated cells.
as §1, with “To determine focal adhesion protein localization, treated cells were incubated with primary monoclonal antibodies for α-actinin (1:100, Upstate, Charlottesville, Va.), vinculin (1:100, Sigma) or paxillin (1:100, BD Bioscience-Transduction Labs, San Jose, Calif.) in 1% BSA solution for 2 hours, rinsed in PBS and incubated 60 min with Cy3-goat IgG secondary antibody (Jackson ImmunoResearch, West Grove, Pa.).” left out

Assay [4] concerns motor cortex of Sprague Dawley rats. Nature of the assay: microwire neural electrode implant, histology for glial scarring (GFAP) and axons (MAP2). Type of assay: in vivo. As to conditions: rat motor cortex, four weeks after implant; peptide as subdural injection (0.1 cc, 100 μm p20) with dextran coated electrodes. The text has this: Microwire arrays were implanted in the motor cortex of Sprague Dawley rats. Six male Sprague-Dawley rats (300-450 g) were implanted with 2×4 arrays of 50 μm tungsten wire. The electrodes were spaced 500 um apart for a total array size of approximately 1.5 mm×0.5 mm. The implant was centered +3 mm anterior and +2 mm lateral from bregmna. The craniotomy was opened slightly larger than the implant size and an injection (0.1 cc, 0.9% PBS or 100 μm p20) was made into the arachnoid space near the implant site using a 30 gauge needle. The mirowire array was held in a micromanipulator and lowered 2 mm from the surface of the dura. The craniotomy was covered with Gelfoam® and the implant and connector were cemented in place with dental acrylic. Three groups were implanted and evaluated histologically after four weeks. Group one was implanted with untreated electrodes. […] Texas Red labeled anti-Rabbit and Cy5 labeled antij-donkey secondary antibodies were used respectively for visualization.

Assay [5] concerns 3T3 cells. Nature of the assay: DNase 1 inhibition assay for monomer g-actin. Format: cell-based. As to conditions: forskolin 10 μM, 30 min, pHSP20 25 μM. As for the experimental part: 3T3 cells were cultured and treated as indicated on the graph (4). Monomer g-actin was biochemically quantitated using a DNase 1 inhibition assay. The level of g-actin in the cell extract that caused 50% inhibition of DNase 1 was estimated from a standard actin curve that was determined using known amounts of actin. *P<0.05 compared to untreated cells.
To confirm that the loss of stress fibers is associated with loss of filamentous (f-) actin and commensurate increases in globular (g-) actin, a DNase 1 inhibition assay was performed (5). 3T3 cells were cultured and treated as indicated (4). Monomer g-actin was biochemically quantitated using a DNase 1 inhibition assay. The level of g-actin in the cell extract that caused 50% inhibition of DNase 1 was estimated from a standard actin curve that was determined using known amounts of actin. […] Thus, transduction of pHSP20 led to similar changes in actin filament dynamics and cellular morphology, as did activation of the upstream adenylate cyclase activator forskolin.

Non-standard residues stand in square brackets, D forms with d. No end group written: not given here. pS = N[C@@H](COP(=O)(O)O)C(=O)O

As to “YGRKKRRQRRRWLRRApSAPLPGL (YGRKKRRQRRRWLRRA[pS]APLPGL) [pHSP20, phosphopeptide analogue of HSP20 with HIV Tat protein transduction domain]”, the “focal adhesion accumulations of α-actinin, vinculin, and paxillin” value in assay [1] was “displayed a decrease in focal adhesion accumulations of α-actinin, vinculin, and paxillin”. Moreover, in assay [2], the “cell morphology and stress fibers (f-actin)” value was “displayed stellate morphology and disrupted stress fibers”. For the same substance, in assay [3], the “focal adhesions (cells positive for focal adhesions)” value was “led to disruption of focal adhesions”. Further, in assay [4], the “density of axons in the vicinity of the microwire electrodes” value is on record as “a higher density of axons was seen” and the “glial scarring around electrodes” value is on record as “essentially no scarring was observed”. Also, the “g-actin (monomer) in cell extract” value in assay [5] (FIG. 1) is reported as “led to increases in g-actin”. In assay [5] (FIG. 1, listed as PhosphoHSP20 peptide), the “g-actin (monomer) in cell extract” value was “disrupts the actin cytoskeleton”.

“lysophosphatidic acid [reference compound]”: in assay [2], the “cell morphology and stress fibers (f-actin)” value is “displayed robust stress fibers”.
